Values of other authors in patent US20040157330A1, “Compositions and methods for targeted biological delivery of molecular carriers” (Arizeke Pharmaceuticals, Inc., priority 2003, published 2004).

Target: human transferrin receptor (Homo sapiens, UniProt P02786)
Conditions: for binding to the human transferrin receptor: without inhibiting transferrin binding

human transferrin receptor, sequence (P02786 whole entry): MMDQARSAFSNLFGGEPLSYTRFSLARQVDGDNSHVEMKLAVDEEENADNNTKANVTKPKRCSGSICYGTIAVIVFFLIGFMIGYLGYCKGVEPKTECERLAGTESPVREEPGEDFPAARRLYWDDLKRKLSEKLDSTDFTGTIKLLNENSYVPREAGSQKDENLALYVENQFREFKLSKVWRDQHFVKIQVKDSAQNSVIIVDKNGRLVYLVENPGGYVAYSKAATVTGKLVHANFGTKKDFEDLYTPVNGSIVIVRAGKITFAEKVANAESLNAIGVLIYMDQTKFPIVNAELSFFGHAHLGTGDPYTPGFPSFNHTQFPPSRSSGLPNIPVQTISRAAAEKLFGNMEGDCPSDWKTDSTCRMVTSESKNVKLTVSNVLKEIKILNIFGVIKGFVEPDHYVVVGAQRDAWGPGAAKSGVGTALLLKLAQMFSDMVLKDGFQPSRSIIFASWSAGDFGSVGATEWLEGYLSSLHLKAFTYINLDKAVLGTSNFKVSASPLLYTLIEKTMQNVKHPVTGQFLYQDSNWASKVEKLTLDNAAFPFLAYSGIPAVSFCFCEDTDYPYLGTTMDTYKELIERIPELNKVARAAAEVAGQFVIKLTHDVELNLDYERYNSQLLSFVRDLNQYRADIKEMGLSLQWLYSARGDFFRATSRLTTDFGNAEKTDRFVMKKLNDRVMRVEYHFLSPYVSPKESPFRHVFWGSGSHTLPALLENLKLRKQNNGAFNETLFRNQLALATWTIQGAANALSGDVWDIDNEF

| binding to the human transferrin receptor | Kd (calculated, similar to the binding affinity of transferrin) [nM] | Substance |
| --- | --- | --- |
| bind specifically | – | HAIYPRH |
| bind specifically | 15 | THRPPMWSPVWP |
